{
  "source": "patent US6875792B2",
  "about": "“Dosage form of L-Methionine S-Sulfoximine” (MSO Pharma LLC, priority 2002, dated 2005)",
  "key": {"[1]": {"settings": "mice; cited from earlier work"}, "glutamine synthetase [2]": {"molecular_target": "glutamine synthetase (Macaca mulatta, UniProt F7CAM5)", "sequence (F7CAM5 1-373)": "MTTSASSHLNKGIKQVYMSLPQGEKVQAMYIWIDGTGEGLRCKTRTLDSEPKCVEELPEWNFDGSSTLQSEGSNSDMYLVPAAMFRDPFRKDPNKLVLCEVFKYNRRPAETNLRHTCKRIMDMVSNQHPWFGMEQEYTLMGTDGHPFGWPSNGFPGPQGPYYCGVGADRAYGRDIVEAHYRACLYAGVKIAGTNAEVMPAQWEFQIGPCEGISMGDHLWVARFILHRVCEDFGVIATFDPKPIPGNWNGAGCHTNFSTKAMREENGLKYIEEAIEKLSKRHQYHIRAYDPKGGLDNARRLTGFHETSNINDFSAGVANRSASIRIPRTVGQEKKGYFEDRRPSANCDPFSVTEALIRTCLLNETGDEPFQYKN", "experimental": "(§1) The Hawkins data is represented with closed circles whereas the comparison tested rats are represented with “+” and open circle symbols. The monkey results are shown with triangles. N represents the number of animals studied.\n(§2) The monkeys who received LSMSO at doses of 5 and 10 mg/kg were anesthetized for a four hour period prior to sacrifice."}, "[3]": {"settings": "cited from earlier work"}, "[4]": {"settings": "rats, cited from earlier work; for paroxysmal symptoms: 100 mg/kg and 50 mg/kg, 20 hours; for brain glutamine level versus paroxysmal dose: 100 and 50 mg/kg vs 200 mg/kg, 20 hours after administration"}, "[5]": {"settings": "rats vs dogs; cited from earlier work"}, "[6]": {"settings": "cited from earlier work", "remark": "listed apart in the source"}, "[7]": {"molecular_target": "γ-glutamylcysteine synthetase (Rattus norvegicus, UniProt P19468)", "sequence (P48508 whole entry partner, one chain of several)": "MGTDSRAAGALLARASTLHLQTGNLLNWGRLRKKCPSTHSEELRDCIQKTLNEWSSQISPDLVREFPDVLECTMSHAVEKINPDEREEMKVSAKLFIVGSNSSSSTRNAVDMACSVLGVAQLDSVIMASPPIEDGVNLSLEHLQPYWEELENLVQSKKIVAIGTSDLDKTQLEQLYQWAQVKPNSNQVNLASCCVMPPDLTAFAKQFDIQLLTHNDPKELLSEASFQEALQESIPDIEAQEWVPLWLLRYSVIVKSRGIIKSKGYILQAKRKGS", "settings": "cited from earlier work"}, "glutamine synthetase [8]": {"system": "glutamine synthetase", "settings": "cited from earlier work"}, "glutamine synthetase [9]": {"molecular_target": "T1, glutamine synthetase (Rattus norvegicus, UniProt P09606)", "T1 sequence (P09606 2-373 limits assumed)": "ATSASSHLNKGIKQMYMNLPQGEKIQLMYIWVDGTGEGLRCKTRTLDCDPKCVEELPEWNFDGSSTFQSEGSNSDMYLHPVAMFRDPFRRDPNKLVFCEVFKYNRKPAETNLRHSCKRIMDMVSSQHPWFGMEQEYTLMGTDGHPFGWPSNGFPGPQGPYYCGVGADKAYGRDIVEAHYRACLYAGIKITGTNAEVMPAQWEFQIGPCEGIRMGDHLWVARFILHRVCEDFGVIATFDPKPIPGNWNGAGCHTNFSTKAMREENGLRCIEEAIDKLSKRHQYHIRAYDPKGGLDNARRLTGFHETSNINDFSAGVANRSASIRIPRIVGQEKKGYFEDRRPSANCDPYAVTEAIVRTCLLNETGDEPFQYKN", "settings": "cited from earlier work"}, "[10]": {"molecular_target": "cortical glutamine synthetase (Rattus norvegicus, UniProt P09606)", "sequence (P09606 2-373 limits assumed)": "as above", "settings": "model of acute hyperammonemia; cited from earlier work"}, "glutamine synthetase [11]": {"molecular_target": "T1, glutamine synthetase", "settings": "MSO pretreatment, cited from earlier work"}, "[12]": {"settings": "cited from earlier work", "remark": "listed apart in the source"}, "[13]": {"settings": "portacaval anastomosis rats infused with ammonium acetate, 150 mg/kg pretreatment; cited from earlier work"}, "[14]": {"settings": "rats; did not affect MSO's inhibition of GS; cited from earlier work"}, "[15]": {"molecular_target": "T2, gamma glutamyl cysteine synthetase (Rattus norvegicus, UniProt P19468)", "T2 construct": "host or cells: rat brain in vivo", "T2 sequence (P19468 1-637)": "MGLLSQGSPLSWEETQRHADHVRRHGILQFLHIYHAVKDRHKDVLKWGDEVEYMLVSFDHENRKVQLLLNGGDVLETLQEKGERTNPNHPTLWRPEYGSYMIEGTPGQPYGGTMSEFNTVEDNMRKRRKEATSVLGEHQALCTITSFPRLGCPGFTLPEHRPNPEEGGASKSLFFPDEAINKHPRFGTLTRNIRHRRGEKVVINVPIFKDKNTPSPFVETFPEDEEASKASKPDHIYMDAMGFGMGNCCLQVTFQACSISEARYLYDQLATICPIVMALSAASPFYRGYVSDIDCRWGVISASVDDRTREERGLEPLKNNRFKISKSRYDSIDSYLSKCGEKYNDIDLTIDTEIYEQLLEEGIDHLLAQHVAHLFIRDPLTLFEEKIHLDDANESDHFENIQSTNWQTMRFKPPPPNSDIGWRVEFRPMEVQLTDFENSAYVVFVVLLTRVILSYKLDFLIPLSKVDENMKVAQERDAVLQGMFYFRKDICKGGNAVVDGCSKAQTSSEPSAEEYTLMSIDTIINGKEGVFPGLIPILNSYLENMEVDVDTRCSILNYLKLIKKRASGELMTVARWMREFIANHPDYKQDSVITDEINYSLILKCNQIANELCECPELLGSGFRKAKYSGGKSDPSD", "settings": "cited from earlier work"}, "[16]": {"settings": "low doses", "source_text": "As stated above, one unfortunate and well known side effect of MSO is that it is a convulsant."}, "glutamine synthetase [17]": {"molecular_target": "T1, glutamine synthetase", "settings": "low dose intravenous, 24 hours prior to sacrifice", "experimental": "as §1, §2"}},
  "note": "Where two headings read alike, the source gives them in different places.",
  "data": [
    {"molecule": "CS(=N)(=O)CC[C@H](N)C(=O)O", "note": "(some centres unmarked) [MSO, methionine sulfoximine]", "values": [
      {"measurement": "in vivo ammonia toxicity", "setting": "[1]", "result": "marked decrease"},
      {"measurement": "activity and appetite", "setting": "glutamine synthetase [2]; one monkey, 2.5 mg/kg, 24 hour period prior to sacrifice", "result": "normal"},
      {"measurement": "sensitivity to the glutamine synthetase inhibiting effect", "setting": "glutamine synthetase [2]; primates compared to rats, low doses, FIG. 1", "result": "more sensitive"},
      {"measurement": "most effective dosage for episodic running behavior to repeated sounds", "setting": "[3]; cats and rats", "result": 7.5, "unit": "mg/kg"},
      {"measurement": "effect at 10 mg/kg", "setting": "[3]; cats, 10 mg/kg", "result": "early convulsive episodes"},
      {"measurement": "amounts that did not render cats susceptible", "setting": "[3]; cats", "result": "less than 5 mg/kg"},
      {"measurement": "paroxysmal symptoms", "setting": "[4]", "result": "did not differ in any way from the control animals"},
      {"measurement": "paroxysmal symptoms", "setting": "[4]; listed as MSI", "result": "no paroxysmal symptoms"},
      {"measurement": "seizures at highest dose", "setting": "[4]; 200 mg/kg", "result": "had seizures"},
      {"measurement": "brain glutamine level versus paroxysmal dose", "setting": "[4]", "result": "decreased to the same degree"},
      {"measurement": "brain glutamine level versus paroxysmal dose", "setting": "[4]; listed as MSI", "result": "reduced to the same degree"},
      {"measurement": "resistance to MSO relative to dogs", "setting": "[5]", "result": "approximately 100 times"},
      {"measurement": "tumor regression", "setting": "[6]; patients with far-advanced, nonresectable cancer", "result": "no evidence of tumor regression"},
      {"measurement": "hepatic or renal function or hematological status", "setting": "[6]; patients, divided doses every 6 or 8 hours", "result": "no change"},
      {"measurement": "inhibition of γ-glutamylcysteine synthetase", "setting": "[7]", "result": "effective inhibitor"},
      {"measurement": "inhibition at 72 hours", "setting": "glutamine synthetase [8]; brain, 72 hours", "result": "remains to a considerable degree"},
      {"measurement": "persistence of inhibitory effect on glutamine synthetase", "setting": "glutamine synthetase [8]; brain", "result": "a long as seven days"},
      {"measurement": "time of maximal inhibition in the brain", "setting": "glutamine synthetase [8]; single injection", "result": 24, "unit": "h"},
      {"measurement": "glutamine synthetase activity", "setting": "glutamine synthetase [9]; rats, 5 to 200 mg/kg intraperitoneal", "result": "decreased in proportion to the dose"},
      {"measurement": "toxicity", "setting": "glutamine synthetase [9]; rats, 5 to 200 mg/kg intraperitoneal, except at the highest dose of 200 mg/kg", "result": "no evidence of toxicity"},
      {"measurement": "time to raised brain concentration of ammonia", "setting": "glutamine synthetase [9]; single intraperitoneal injection", "result": "≤ 2", "unit": "h"},
      {"measurement": "inhibition of cortical glutamine synthetase", "setting": "[10]", "result": 64, "unit": "%"},
      {"measurement": "prevented increase in cortical glutamine concentration", "setting": "[10]", "result": 13, "unit": "mmol/kg"},
      {"measurement": "cortical glutamine levels", "setting": "glutamine synthetase [11]; group IV hyperammonemic rats", "result": "did not increase"},
      {"measurement": "inhibition of glutamine synthetase activity", "setting": "glutamine synthetase [11]; within the brain", "result": 64, "unit": "%"},
      {"measurement": "resistance to MSO relative to dogs", "setting": "[12]; monkeys vs dogs", "result": "approximately 100 times"},
      {"measurement": "brain edema", "setting": "[13]", "result": "ameliorated"},
      {"measurement": "intracranial pressure", "setting": "[13]", "result": "did not rise"}
    ]},
    {"molecule": "CSCC[C@H](N)C(=O)O", "note": "[methionine]", "values": [
      {"measurement": "protection from the convulsant effect of MSO", "setting": "[14]", "result": "protected"},
      {"measurement": "MSO-induced seizures on administration of methionine", "setting": "[12]; monkeys and dogs", "result": "suppressed"}
    ]},
    {"molecule": "CCCCS(=N)(=O)CCC(N)C(=O)O", "note": "(centres unmarked) [buthionine sulfoximine]", "values": [
      {"measurement": "hyperammonemic brain swelling", "setting": "[15]", "result": "did not prevent"}
    ]},
    {"molecule": "CS(=N)(=O)CC[C@H](N)C(=O)O", "note": "(stereo partly drawn) [LSMSO, L-methionine S-sulfoximine]", "values": [
      {"measurement": "brain glutamine levels", "setting": "[16]", "result": "lowered"},
      {"measurement": "seizures", "setting": "[16]; LSMSO alone", "result": "no seizures"},
      {"measurement": "state of the rats prior to sacrifice", "setting": "glutamine synthetase [17]", "result": "awake and asymptomatic"},
      {"measurement": "glutamine synthetase inhibition at low doses", "setting": "glutamine synthetase [9]; rats, doses of less than 20 mg/kg", "result": "dramatic decrease"}
    ]}
  ]
}
